Measured values taken from BindingDB's records for doi:10.7270/Q2H130G1 (Burnham Center For Chemical Genomics, 2010).

Biological target: T1, Alkaline phosphatase, tissue-nonspecific isozyme (Homo sapiens, UniProt P05186)
T1 sequence (P05186 whole entry): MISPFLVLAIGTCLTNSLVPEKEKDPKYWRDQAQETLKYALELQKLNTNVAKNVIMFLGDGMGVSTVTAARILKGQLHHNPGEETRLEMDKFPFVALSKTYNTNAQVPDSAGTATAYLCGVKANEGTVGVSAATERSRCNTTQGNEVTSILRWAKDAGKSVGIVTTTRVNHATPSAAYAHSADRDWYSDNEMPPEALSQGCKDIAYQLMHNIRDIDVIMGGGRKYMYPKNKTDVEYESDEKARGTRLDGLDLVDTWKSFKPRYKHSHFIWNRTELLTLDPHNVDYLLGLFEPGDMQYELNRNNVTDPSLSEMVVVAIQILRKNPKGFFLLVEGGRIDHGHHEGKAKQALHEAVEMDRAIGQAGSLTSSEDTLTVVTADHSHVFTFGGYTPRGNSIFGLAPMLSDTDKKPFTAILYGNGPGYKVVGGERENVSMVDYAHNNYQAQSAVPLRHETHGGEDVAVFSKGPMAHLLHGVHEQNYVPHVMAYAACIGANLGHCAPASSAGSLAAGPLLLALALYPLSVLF
Experiment: TNAP enzyme inhibition by screening hits, dose response, selectivity assay for mouse IAP inhibitor project, biochemical, human TNAP, uHTS hits (AID 488906)

Compared with Cc1ccc(Cl)c2c1NC(=O)/C2=C1/NC(=S)NC1=O, Cc1ccc(/C=C2\SC(=S)N(/N=C/C3C=C([N+](=O)[O-])C=CC3=O)C2=O)o1 (stereo not given) [(5Z)-5-[(5-methylfuran-2-yl)methylidene]-3-[[(E)-(3-nitro-6-oxocyclohexa-2,4-dien-1-ylidene)methyl]amino]-2-sulfanylidene-1,3-thiazolidin-4-one] is higher in IC50: 0.211 µM for the first, > 100 µM for the second.

First: Nc1nnc(CC(=O)N/N=C/C2C=C([N+](=O)[O-])C=C(Br)C2=O)s1 (stereo not given) [2-(5-azanyl-1,3,4-thiadiazol-2-yl)-N'-[(E)-(5-bromanyl-3-nitro-6-oxidanylidene-cyclohexa-2,4-dien-1-ylidene)methyl]ethanehydrazide]
Second: O=C1C=CC(C=NNC(=S)Nc2ccccc2[N+](=O)[O-])C=C1O (stereo not given) [MLS000417596]
The IC50 of the first is 13-fold higher: 20.6 µM for the first, 1.53 µM for the second. The second is the more potent here.

NS(=O)(=O)c1cc(C(=O)NNC2=c3ccccc3=NC2=O)ccc1Cl [2-chloro-5-[[(2-oxoindol-3-yl)amino]carbamoyl]benzenesulfonamide] and COc1cc(C=CC(=O)CC(=O)C=Cc2ccc(O)cc2)ccc1O [demethoxycurcumin] cannot be ordered by IC50: > 100 µM for the first, > 100 µM for the second.

First: COc1cc(C=Nn2c(O)csc2=S)ccc1O [3-[[(E)-(3-methoxy-4-oxidanylidene-cyclohexa-2,5-dien-1-ylidene)methyl]amino]-2-sulfanylidene-1,3-thiazolidin-4-one]
Second: Oc1ccc(C=Nn2c(O)csc2=S)c(O)c1O [3-[[(E)-[2,3-bis(oxidanyl)-4-oxidanylidene-cyclohexa-2,5-dien-1-ylidene]methyl]amino]-2-sulfanylidene-1,3-thiazolidin-4-one]
The IC50 of the first is higher: > 100 µM for the first, 58.5 µM for the second. The second is the more potent here.

Going from CC1NON=C1C(=O)NN=CC1=CC(=O)C(=O)C=C1 (stereo not given) [4-Methyl-furazan-3-carboxylic acid (3,4-dihydroxy-benzylidene)-hydrazide] to O=C1C=CC(/C=C/c2nc(O)c([N+](=O)[O-])c(=O)[nH]2)C=C1O (stereo not given) [SMR000524347], the IC50 falls from 16.8 µM to 1.12 µM (15-fold). The second is the more potent here.

Compared with Oc1ccc(CN=Nc2cc(N3CCCC3)nc(N3CCCC3)n2)cc1O [(4Z)-4-[[2-(2,6-dipyrrolidin-1-ylpyrimidin-4-yl)hydrazinyl]methylidene]-2-hydroxycyclohexa-2,5-dien-1-one], C#CCOCCOCCOCCNc1nc(N2CCN(C(=O)CCCCCCCCCCNC(=O)[C@H]([C@@H](C)CC)n3cc(CCCCN=C(N)N)nn3)CC2)nc(N2CCN(C(=O)CCCCCCCCCCNC(=O)[C@@H]([C@H](C)O)n3cc(C)nn3)CC2)n1 [GT-RI] is lower in IC50: > 100 µM for the first, 1.04 µM for the second.

C#CCOCCOCCOCCNc1nc(N2CCN(C(=O)CCCCCCCCCCNC(=O)Cn3cc(CCCCCN)nn3)CC2)nc(N2CCN(C(=O)CCCCCCCCCCNC(=O)Cn3cc(C[C@@H](C)O)nn3)CC2)n1 [KG-TG] and C#CCOCCOCCOCCNc1nc(N2CCN(C(=O)CCCCCCCCCCNC(=O)[C@@H](CCSC)n3cc(CCO)nn3)CC2)nc(N2CCN(C(=O)CCCCCCCCCCNC(=O)[C@H]([C@@H](C)CC)n3cc(CCCCCN)nn3)CC2)n1 [MLS002153719] cannot be ordered by IC50: > 100 µM for the first, > 100 µM for the second.

O=C(Nn1c(O)csc1=S)C(=O)Nn1c(O)csc1=S [SMR000349781] was tested, and the IC50 was > 100 µM.
